The values that follow are results of earlier work, collected in patent US20250325518A1, “USE OF A COMBINATION OF SACUBITRIL AND VALSARTAN” (Novartis AG, priority 2016, published 2025).

Data set [1] concerns patients 8 months to 14 years with HF due to congenital heart disease or cardiomyopathy. Particulars: pediatric HF patients 8 months to 14 years; placebo-controlled.
Data set [2] relates to adult patients with HF with reduced ejection fraction (HFrEF). Particulars: LCZ696 vs enalapril.

With `COc1ccccc1OCCNCC(O)COc1cccc2[nH]c3ccccc3c12` (stereo not shown) [carvedilol], in data set [1], the “composite measure of HF outcomes (worsening, improved or unchanged), primary endpoint” value is on record as “did not meet its composite primary endpoint”.
Consider “trisodium [3-((1S,3R)-1-biphenyl-4-ylmethyl-3-ethoxycarbonyl-1-butylcarbamoyl)propionate-(S)-3′-methyl-2′-(pentanoyl{2″-(tetrazol-5-ylate)biphenyl-4′-ylmethyl}amino)butyrate] hemipentahydrate [LCZ696]”, for which the “relative risk reduction (RRR), time to first occurrence of composite endpoint of CV death or HF hospitalization” value in data set [2] (N=8442, p=0.0000002) is given as 20%. Also, in data set [2] (p=0.00004), the “relative risk reduction (RRR), time to CV death” value is recorded as 20% and the “relative risk reduction (RRR), time to first HF hospitalization” value is listed as 21%.
